Measurements from patent US5235061A, “Fungicidal (1H-1,2,4-triazolyl)disilaalkanes” (priority 1991, dated 1993).

Legend:
Assay in all cases: In vitro percent disease control (radii of spore growth on agar)
Assay type in all cases: cell-based
[1] = tested on: Glomerella cingulata; conditions: for inhibition of growth at 50 ppm / inhibition of growth at 100 ppm: Colletotrichum gloeosporioides, read-out: % controlled, Glo.
Description: (§1) The compounds of this invention were dissolved respectively in acetone in an amount equal to 10% of the final volume and then in purified water at the concentration of 100 ppm and 50 ppm.
(§2) Each of the solution was mixed with potato-sucrose-agar medium in a 6" petri dish and one of the fungi was spotted at the center of the dish. The dish was incubated in growth room for several days. The percent disease control was derived from the radii of spore growth. The screening tests in vitro condition are well-known to those skilled in the art.
(§3) The following fungi were used for the screening.
5) Glo.; Glomerella cingulata

[2] = tested on: Phytophthora capsisi; conditions: Phytophthora, read-out: % controlled, Phy ca.
Description: as §1, §2, §3
2) Phy. ca.; Phytophthora capsisi

[3] = tested on: Rhizopus sp.; conditions: for inhibition of growth at 50 ppm / inhibition of growth at 100 ppm: Rhizopus, read-out: % controlled, Rhi. sp.
Description: as §1, §2, §3

[4] = tested on: Alternaria mali; conditions: for inhibition of growth at 50 ppm / inhibition of growth at 100 ppm: Alternaria mali, read-out: % controlled, Al.
Description: as §1, §2, §3

[5] = tested on: Botry tris cinerea; conditions: for inhibition of growth at 50 ppm / inhibition of growth at 100 ppm: read-out: % controlled, Bo ci.
Description: as §1, §2, §3
10) Bo.ci.; Botry tris cinerea

[6] = tested on: Rhizoctonia solani; conditions: for inhibition of growth at 50 ppm / inhibition of growth at 100 ppm: Rhizoctonia solani, read-out: % controlled, Rhy. so.
Description: as §1, §2, §3
7) Rhi.so.; Rhizoctonia solani

[7] = tested on: Physalospora baccae; conditions: for inhibition of growth at 50 ppm / inhibition of growth at 100 ppm: read-out: % controlled, Phy ba.
Description: as §1, §2, §3
3) Phy. ba.; Physalospora baccae

[8] = tested on: Pyricalaria oryzae; conditions: for inhibition of growth at 50 ppm: read-out: % controlled, Py. or., 50 ppm; for inhibition of growth at 100 ppm: read-out: % controlled, Py. or., 100 ppm
Description: as §1, §2, §3
6) Py.or.; Pyricalaria oryzae

[9] = tested on: Fusarium moniliforme
Description: as §1, §2, §3
8) Fu.mo.; Fusarium moniliforme

[10] = tested on: Botryosphaeria dothidea Macrophoma sp.; conditions: for inhibition of growth at 50 ppm / inhibition of growth at 100 ppm: Botryosphaeria dothidea, read-out: % controlled, Bo.do (Ma.)
Description: as §1, §2, §3
4) Bo.do(Ma); Botryosphaeria dothidea Macrophoma sp.

Row | Molecule | inhibition of growth at 50 ppm ([1]; 50 ppm) [%] | inhibition of growth at 100 ppm ([1]; 100 ppm) [%] | inhibition of growth at 50 ppm [2] [%] | inhibition of growth at 100 ppm [2] [%] | inhibition of growth at 50 ppm ([3]; 50 ppm) [%] | inhibition of growth at 100 ppm ([3]; 100 ppm) [%] | inhibition of growth at 50 ppm ([4]; 50 ppm) [%] | inhibition of growth at 100 ppm ([4]; 100 ppm) [%] | inhibition of growth at 50 ppm ([5]; 50 ppm) [%] | inhibition of growth at 100 ppm ([5]; 100 ppm) [%] | inhibition of growth at 50 ppm ([6]; 50 ppm) [%] | inhibition of growth at 100 ppm ([6]; 100 ppm) [%] | inhibition of growth at 50 ppm ([7]; 50 ppm) [%] | inhibition of growth at 100 ppm ([7]; 100 ppm) [%] | inhibition of growth at 50 ppm [8] [%] | inhibition of growth at 100 ppm [8] [%] | % controlled, Fu. mo. ([9]; 50 ppm) [%] | % controlled, Fu. mo. ([9]; 100 ppm) [%] | inhibition of growth at 50 ppm ([10]; 50 ppm) [%] | inhibition of growth at 100 ppm ([10]; 100 ppm) [%] | other results
1 | C=CC[Si](Cn1cncn1)(C[Si](CC=C)(c1ccccc1)c1ccc(-c2ccccc2)cc1)c1ccc(F)cc1 (stereo not drawn) [4-(4-fluorophenyl)-6-phenyl-6-(4-phenylphenyl)-4,6-disila-4-(1H-1,2,4-triazol-1-ylmethyl)-1,8-nonadiene] | 80 | 86 | 70 | 72 | 50 | 58 | 72 | 78 | 90 | 90 | 60 | 90 | 65 | 69 | 100 | 100 | 61 | 65 | – | – | –
2 | 2-(4-chlorophenyl)-2-(4-fluorophenyl)-2,4-dimethyl-1-(1H-1,2,4-triazol-1-yl)pentane | – | – | – | – | – | – | – | – | – | – | – | – | – | – | – | – | 46 | 46 | – | – | % controlled, Glo. ([1]; 50 ppm): 87%; % controlled, Glo. ([1]; 100 ppm): 87%; % controlled, Bo.do (Ma.) ([10]; 50 ppm): 79%; % controlled, Bo.do (Ma.) ([10]; 100 ppm): 79%; % controlled, Rhi. sp. ([3]; 50 ppm): 50%; % controlled, Rhi. sp. ([3]; 100 ppm): 50%; % controlled, Al. ([4]; 50 ppm): 75%; % controlled, Al. ([4]; 100 ppm): 79%; % controlled, Bo ci. ([5]; 50 ppm): 90%; % controlled, Bo ci. ([5]; 100 ppm): 90%; % controlled, Rhy. so. ([6]; 50 ppm): 96%; % controlled, Rhy. so. ([6]; 100 ppm): 96%; % controlled, Phy ba. ([7]; 50 ppm): 69%; % controlled, Phy ba. ([7]; 100 ppm): 69%; % controlled, Py. or. ([8]; 50 ppm): 100%; % controlled, Py. or. ([8]; 100 ppm): 100%
3 | C=CC[Si](C)(Cn1cncn1)C[Si](CC=C)(c1ccc(OCC)cc1)c1ccc(OCC)cc1 (stereo not drawn) [6,6-bis(4-ethoxyphenyl)-4-methyl-4,6-disila-4-(1H-1,2,4-triazol-1-ylmethyl)-1,8-nonadiene] | 100 | 100 | 55 | 60 | 80 | 80 | 100 | 100 | 100 | 100 | 100 | 100 | – | – | 100 | 100 | 100 | 100 | 70 | 72 | –
4 | C[Si](C)(C[Si](C)(Cn1cncn1)c1ccc(F)cc1)c1ccc(-c2ccccc2)cc1 (stereo not drawn) [2-(4-fluorophenyl)-4-(4-phenylphenyl)2,4-dimethyl-2,4-disila-1-(1H-1,2,4-triazol-1-yl)pentane] | 87 | 87 | – | – | 50 | 50 | 75 | 79 | 90 | 90 | 96 | 96 | 69 | 69 | 100 | 100 | 46 | 46 | 79 | 79 | –
5 | C=CC[Si](CC=C)(Cn1cncn1)C[Si](CC=C)(c1ccc(F)cc1)c1ccc(-c2ccccc2)cc1 (stereo not drawn) [6-(4-fluorophenyl)-6-(4-phenylphenyl)-4-(2-propenyl)-4,6-disila-4-(1H-1,2,4-triazol-1-ylmethyl)-1,8-nonadiene] | 100 | 100 | 40 | 50 | 100 | 100 | 100 | 100 | 100 | 100 | 100 | 100 | 100 | 100 | 100 | 100 | – | – | 100 | 100 | –
